Reference: patent publication US8513248B2, “5,6,7,8-tetrahydroimidazo[1,2-A]pyrazine derivatives as P2X7 modulators” (Glaxo Group Limited, priority 2009, dated 2013)
Where a name gives a salt, the structure may show the parent alone.

Assays:
[1] = molecular target: T1, human recombinant P2X7 receptors (Homo sapiens, UniProt Q99572); experiment: Ethidium Accumulation Assay 1; format: cell-based; details: HEK293 cells stably expressing human recombinant P2X7; 1 mM ATP; ethidium 100 μM; read-out: Assay 1 (antagonist pIC50 for blocking ATP responses, ethidium accumulation) (converted)
T1 construct: expressed in transfected cells
T1 sequence (Q99572 1-595): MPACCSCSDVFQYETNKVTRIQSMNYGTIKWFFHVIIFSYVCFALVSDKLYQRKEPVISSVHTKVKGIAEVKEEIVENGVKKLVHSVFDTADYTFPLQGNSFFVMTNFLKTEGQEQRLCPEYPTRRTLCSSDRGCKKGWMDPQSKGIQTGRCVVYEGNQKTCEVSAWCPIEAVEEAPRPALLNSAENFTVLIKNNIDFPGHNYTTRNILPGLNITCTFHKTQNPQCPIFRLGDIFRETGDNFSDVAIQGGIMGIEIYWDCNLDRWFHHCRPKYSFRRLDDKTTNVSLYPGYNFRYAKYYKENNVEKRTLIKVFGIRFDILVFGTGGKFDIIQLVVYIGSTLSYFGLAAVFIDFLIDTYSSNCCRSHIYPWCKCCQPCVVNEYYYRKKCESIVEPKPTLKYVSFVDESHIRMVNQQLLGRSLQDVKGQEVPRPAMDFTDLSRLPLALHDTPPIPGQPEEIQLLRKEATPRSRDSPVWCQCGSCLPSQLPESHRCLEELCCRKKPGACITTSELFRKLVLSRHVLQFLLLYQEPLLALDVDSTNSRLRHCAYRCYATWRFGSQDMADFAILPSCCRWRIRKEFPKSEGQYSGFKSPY
Description: Studies were performed using NaCl assay buffer of the following composition: 140 mM NaCl, 10 mM HEPES [4-(2-hydroxyethyl)-1-piperazine-1-ethanesulfonic acid], 5 mM N-methyl-D-glucamine, 5.6 mM KCl, 10 mM D-glucose, 0.5 mM CaCl2 (pH 7.4).
Human Embryonic Kidney (HEK) 293 cells, stably expressing human recombinant P2X7 receptors, were grown in poly-D-lysine pretreated 96 well plates for 18-24 hours. […] The cells were washed twice with 350 μl of the assay buffer, before addition of 50 μl of the assay buffer containing the putative P2X7 receptor antagonist compound. (A small amount of dimethyl sulfoxide, for initially dissolving the compound, is optionally used and present in this […] test compound sample.) The cells were then incubated at room temperature (19-21° C.) for 30 min before addition of ATP and ethidium (100 μM final assay concentration). The ATP concentration was chosen to be close to the EC80 for the receptor type and was 1 mM for studies on the human P2X7 receptor. Incubations were continued for 8 or 16 min and were terminated by addition of 25 μl of 1.3M sucrose containing 4 mM of the P2X7 receptor antagonist Reactive Black 5 (Aldrich). […] Antagonist pIC50 values for blocking ATP responses were determined using iterative curve fitting techniques.

[2] = molecular target: T1, human recombinant P2X7 receptors; experiment: Ethidium Accumulation Assay 2; format: cell-based; details: HEK293 cells stably expressing human recombinant P2X7; ATP solution with ethidium bromide; 16 min incubation; read-out: Assay 2 (antagonist pIC50 for blocking ATP responses, ethidium accumulation) (converted)
Description: Human Embryonic Kidney (HEK) 293 cells, stably expressing human recombinant P2X7 receptors, were grown in poly-D-lysine pretreated 96 well plates for 24 hours at 37° C.
The cells were washed with assay buffer (100 μL), before addition of 25 μL of assay buffer and then 25 ul of assay buffer containing the putative P2X7 receptor antagonist compound. The cells were then incubated at room temperature (19-21° C.) for 30 min before addition of ATP solution (50 μM). […] Antagonist pIC50 values for blocking ATP responses were determined using iterative curve fitting techniques.

Row | IC50 [1] | IC50 [2] | Structure (SMILES)
1 | < 100 nM | < 100 nM | O=C(c1cccc(C(F)(F)F)c1Cl)N1CCn2ccnc2C1 [Example 1, 7-{[2-Chloro-3-(trifluoromethyl)phenyl]carbonyl}-5,6,7,8-tetrahydroimidazo[1,2-a]pyrazine]
2 | < 100 nM | < 100 nM | O=C(c1cccc(C(F)(F)F)c1Cl)N1CCn2cc(C(F)(F)F)nc2C1 [Example 2, 7-{[2-Chloro-3-(trifluoromethyl)phenyl]carbonyl}-2-(trifluoromethyl)-5,6,7,8-tetrahydroimidazo[1,2-a]pyrazine]
3 | < 100 nM | < 100 nM | Cc1cnc2n1CCN(C(=O)c1cccc(C(F)(F)F)c1Cl)C2 [Example 27, 7-{[2-Chloro-3-(trifluoromethyl)phenyl]carbonyl}-3-methyl-5,6,7,8-tetrahydroimidazo[1,2-a]pyrazine hydrochloride]
